Tests used:
piglets = conditions: cited from earlier work; for learning and memory tasks compared to controls: piglets fed the substance; for cognitive performance: piglets, feeding
[1] = system: infant regional cerebral blood flow (rCBF); assay: Arterial Spin Labeling (rCBF) of newborn brain vs HMO concentration in mother's milk at 1-month, voxel-wise multiple linear regression; format: in vivo, human; conditions: for association of exposure with rCBF: milk concentration at 1-month, total sample N=20, FDR-corrected; for B, association of exposure with rCBF: white matter
Excerpt: (§1) Twenty mother-infant pairs were recruited from maternity clinics in Los Angeles County as part of a larger cohort study, and inclusion criteria has been previously described. Briefly, mothers were included if they were ≥18 years old at delivery, had given birth to a full-term singleton newborn, were breastfeeding, and were enrolled within 1 month from delivery. […] The Institutional Review Board of Children's Hospital Los Angeles approved all procedures. Participants provided written informed consent prior to data collection.
(§2) Mother-infant pairs were assessed at 1-month postpartum. Historical health-related information was collected. Mothers pumped a full expression of breast milk that was analyzed for individual HMO concentrations. Infants underwent magnetic resonance imaging (MRI) scanning at approximately 1-month postpartum to assess brain tissue microstructure and regional cerebral blood flow (rCBF).
(§3) Breast milk was collected and analyzed following standard procedures. Mothers were asked to avoid eating and drinking for 1-hour and feeding or pumping breast milk for 1.5-hours before collection. Mothers were encouraged to pump the entire contents of a single breast expression to ensure collection of fore, mid, and hind milk to standardize milk collection as much as possible. Aliquots were stored at −80° C. until HMO characterization at the University of California San Diego. Raffinose was added to each sample as an internal standard for absolute quantification. HMOs were isolated with high-throughput solid-phase extraction, fluorescently labeled, and measured using HPLC. Nineteen HMOs were quantified based on standard retention times and mass spectrometric analysis, which accounted for >90% of total HMO composition. The initial focus, however, was on the most abundant fucosylated and sialylated HMOs reported to influence brain development in animals and infants: 2′FL, 3FL, 3′SL, and 6′SL. Secretor status was defined by the presence or near absence of HMOs 2′FL or lacto-N-fucopentaose I.
(§4) MRI data were collected on a 3 Tesla Philips Achieva MRI scanner equipped with a 32-channel receive-only head coil. All data were acquired without sedation or contrast agent. Mothers and staff lulled infants to sleep with feeding and swaddling. Scans were visually monitored and repeated for any visible motion. Detailed image quality was assessed during preprocessing within 48 hours of scan acquisition.
Arterial Spin Labeling (ASL), which quantifies rCBF, a surrogate measure of cellular metabolism: The rCBF brain images and the Mo_wM image to the first rCBF image for each participant were aligned in native imaging space to correct for head motion. Images with >0.5 mm inter-frame motion were excluded from further processing. […] An in-house software was used to construct for each infant a voxel-wise map of rCBF from the ASL time series and Mo_wm image: 1) pair-wise subtracted the control images from the labeled images; 2) Perfusion-weighted images were calculated by pair-wise subtraction of the control and labeled images, followed by averaging across the imaging time series. The perfusion map (rCBF) was calculated using a single compartment model. A linear transformation with 6 degrees of freedom was used to coregister the quantitative rCBF maps for each infant to their T1-weighted anatomical images, which were in turn used as an intermediary source to coregister the rCBF images for each infant to the final brain template. […]

[2] = system: infant brain tissue microstructure; assay: Diffusion Tensor Imaging (FA, MD) of newborn brain vs HMO concentration in mother's milk at 1-month, voxel-wise multiple linear regression; format: in vivo, human; conditions: for association of exposure with FA values / association of exposure with MD values: milk concentration at 1-month, total sample N=20, FDR-corrected
Excerpt: as §1, §2, §3, §4
Diffusion Tensor Imaging (DTI), which measures the diffusion of water as influenced by characteristics of brain tissue microstructure: The template brain was selected using a 2-step procedure to find the brain that was morphologically representative of all brains in our sample, as described in FIG. 1. Quality assurance procedures were instituted to exclude datasets with excessive motion. The diffusion tensor (D) was estimated at each voxel of the pre-processed DTI data in DSI Studio (RRID:SCR_009557) and computed the scalar indices fractional anisotropy (FA), mean diffusivity (MD), axial diffusivity (AD), and radial diffusivity (RD). These maps were edited to remove nonbrain tissue and then were threshed to remove background noise. Edited MD map was used to mask out nonbrain tissue in the FA, AD, and RD maps. The edited maps for each infant were coregistered using a rigid body transformation (3 translations and 3 rotations) to the infant's T1-weighted (T1w) anatomical image, which were in turn used as an intermediary source to coregister the maps for each infant to the final template brain. The FA, AD, MD, and RD maps were then smoothed using a Gaussian kernel with FWHM=4 mm.
Descriptive statistics are presented as mean±standard deviation (SD) for continuous variables and as frequency (percentage) for categorical variables. Normal distribution and homogeneity of variances were confirmed by Shapiro-Wilks W and Levene's tests. Values >3 SD from the mean were identified as outliers. […]

Row | SMILES | learning and memory tasks compared to controls (piglets) | cognitive performance (piglets) | association of exposure with rCBF [1] | association of exposure with FA values [2] | association of exposure with MD values [2] | B, association of exposure with rCBF ([1]; CC) | B, association of exposure with rCBF ([1]; IC) | B, association of exposure with rCBF ([1]; aCR) | B, association of exposure with MD values ([2]; left posterior corona radiata, pCR) | B, association of exposure with FA values ([2]; right DLPFC) | B, association of exposure with FA values ([2]; right aCR)
1 | CC(=O)N[C@H]1[C@H]([C@H](O)[C@H](O)CO)O[C@@](OC[C@H]2O[C@@H](O[C@H]3[C@H](O)[C@@H](O)[C@H](O)O[C@@H]3CO)[C@H](O)[C@@H](O)[C@H]2O)(C(=O)O)C[C@@H]1O [6′SL, 6′-sialyllactose, reference compound] | performed better on learning and memory tasks | improved cognitive performance | not significantly associated | not significantly associated | not significantly associated | – | – | – | – | – | –
2 | CC(=O)N[C@H]1[C@H]([C@H](O)[C@H](O)CO)O[C@@](O[C@H]2[C@@H](O)[C@@H](CO)O[C@@H](O[C@H]3[C@H](O)[C@@H](O)C(O)O[C@@H]3CO)[C@@H]2O)(C(=O)O)C[C@@H]1O (stereo partly shown) [3′SL, 3′-sialyllactose] | performed better on learning and memory tasks | improved cognitive performance | increased rCBF | increased FA values | reduced MD values | 0.06 | 0.04 | 0.07 | −0.10 | 0.03 | 0.04
